The source of these data is US20170231949A1, “CELL REPAIR AGENT AND DISINFECTION SYSTEM” (priority 2014, published 2017).

The structures appear in SMILES notation.

What all share (type): cell-based
The test system of assay [1] is mouse fibroblasts in stationary phase. Nature of the assay: Test 3: impact of DMSO and proanthocyanidin on intracellular ROS levels increased by acidic electrolyzed water. As to conditions: four-fold-diluted or undiluted AEW 30 seconds, then 140 mM DMSO or 1 mg/ml proanthocyanidin, 1 hour. Here is the method:
Specifically, 100 μl of 1 mM 2',7'-dichlorodihydrofluorescin Diacetate (DCFH-DA) dissolved in serum-free medium (DMEM only) was added to each well, and then cells were cultured for 1 hour under conditions of 37° C. and 5% CO2. After culture, washing with phosphate-buffered saline was performed, 100 μl of 2× Cell Lysis Buffer (Cell Biolabs) and 100 μl of serum-free DMEM were added, and then the resultants were left to stand for 5 minutes. 150 μl of the resultants was transferred from each well to a black 96-well microplate, fluorescence intensities were measured at an excitation wavelength of 450 nm and a fluorescence wavelength of 530 nm using a microplate reader (“FilterMaxTM F5 Multi-Mode Microplate Reader”, Molecular Devices). A standard curve was prepared using 2',7'-dichlorodihydrofluorescein (DCF), and intracellular ROS levels were represented by DCF equivalents (nM). In addition, a significant difference to the average value of each control group (control) was tested by Dunnett's multiple comparison test (multiple comparative analysis). Similarly to Test 2, mouse fibroblasts in stationary phase were treated with four-fold-diluted acidic electrolyzed water and undiluted acidic electrolyzed water for 30 seconds. […] After culture, similarly to Test 2, intracellular ROS levels were determined.

Assay [2] relates to mouse fibroblasts in growth phase. Nature of the assay: Tests 4, 6, 7, 8: post-treatment after acidic electrolyzed water, degree of cell proliferation by MTT method. The conditions noted are these: 24 hours culture. The protocol:
(§1) Similarly to Test 1, mouse fibroblasts in growth phase were treated with four-fold-diluted acidic electrolyzed water and undiluted acidic electrolyzed water for 30 seconds. After washing with phosphate-buffered saline, 100 μl of 140 mM DMSO or 1 mg/ml proanthocyanidin prepared with serum-free DMEM was added to each well, and then cells were cultured for 30 minutes under conditions of 37° C. and 5% CO2. After washing with PBS, fresh medium was added, and then the degree of cell proliferation after 24 hours of culture under conditions of 37° C. and 5% CO2 was determined by the MTT method. In addition, a significant difference between groups was tested by Tukey-Krammer's multiple comparison test (multiple comparative analysis).
as §1, with “4,” for “1,”, “PBS,” for “phosphate-buffered saline,”, “of” for “of 140 mM DMSO or”, “(+)-catechin (Tokyo Chemical Industry Co., Ltd.)” for “proanthocyanidin”, “followed by” for “and then cells were cultured for”, “minutes of culture” for “minutes”
Similarly to Test 4, mouse fibroblasts in growth phase were treated with undiluted acidic electrolyzed water for 30 seconds. After washing with PBS, 100 μl of 1 mg/ml chlorogenic acid (Sigma-Aldrich), caffeic acid (Tokyo Chemical Industry Co., Ltd.) or gallic acid (Tokyo Chemical Industry Co., Ltd.) prepared with serum-free DMEM was added to each well, followed by 5 or 30 minutes of culture under conditions of 37° C. and 5% CO2. After washing with PBS, fresh medium was added, and then the degree of cell proliferation after 24 hours of culture under conditions of 37° C., 5% CO2 was determined by the MTT method. In addition, a significant difference between groups was tested by Tukey-Krammer's multiple comparison test (multiple comparative analysis).
Similarly to Test 4, mouse fibroblasts in growth phase were treated with undiluted acidic electrolyzed water for 30 seconds. After washing with PBS, 100 μl of 1 mg/ml proanthocyanidin prepared with serum-free DMEM was added to each well, and the resultants were each left to sit at room temperature for 1 minute and 5 minutes. After washing with PBS, fresh medium was added, and then the degree of cell proliferation after 24 hours of culture under conditions of 37° C. and 5% CO2 was determined by the MTT method. In addition, a significant difference between groups was tested by Tukey-Krammer's multiple comparison test (multiple comparative analysis).

Assay [3] relates to human gingival fibroblasts in growth phase. Nature of the assay: Test 5: post-treatment after acidic electrolyzed water, degree of cell proliferation by MTT method. As to conditions: four-fold-diluted or undiluted AEW 30 seconds, then 140 mM DMSO or 1 mg/ml proanthocyanidin for 30 minutes; 24 hours culture. The protocol:
A test similar to Test 4 was conducted for human gingival fibroblasts in growth phase. First, human gingival fibroblasts (purchased from Primary Cell Co., Ltd.) were cultured in a 25 cm^2 flask under conditions of 37° C. and 5% CO2, and then a cell suspension was prepared similarly to the case of mouse fibroblasts in medium to a cell density of 2×10^4 cells/ml. 100 μl each of the cell suspension was seeded to each well of a 96-well microplate.
(In general: Tetrazolium dyes change colour on reduction, which living cells bring about.)

The mark [4] stands for this setting: undiluted AEW 30 seconds, then 1 mg/ml test substance for 5 or 30 minutes.

Consider `C[S+](C)[O-]` [DMSO, dimethyl sulfoxide], for which the “ROS level increased by acidic electrolyzed water” value in assay [1] is “significantly decreased”. Further, the “cell proliferation state (degree of cell proliferation, MTT)” value (“cell proliferation state” below) in assay [2] (four-fold-diluted and undiluted AEW 30 seconds, then 140 mM DMSO or 1 mg/ml proanthocyanidin for 30 minutes) is “no change”; in assay [3] it was “no change”.

Consider `O=C(O)/C=C/c1ccc(O)c(O)c1` [caffeic acid], for which, in assay [2] (setting [4]), the “cell proliferation state” value is recorded as “significantly improved”.

With `O=C(/C=C/c1ccc(O)c(O)c1)O[C@@H]1C[C@](O)(C(=O)O)C[C@@H](O)[C@H]1O` [chlorogenic acid], the “cell proliferation state” value in assay [2] (setting [4]) is reported as “significantly improved”.

Take `Oc1cc(O)c2c(c1)O[C@H](c1ccc(O)c(O)c1)[C@@H](O)C2` [(+)-catechin]: the “cell proliferation state” value in assay [2] (four-fold-diluted and undiluted AEW 30 seconds, then 1 mg/ml (+)-catechin for 30 minutes) was “significantly improved”.

In the case of `O=C(O)c1cc(O)c(O)c(O)c1` [gallic acid], the “cell proliferation state” value in assay [2] (setting [4]) was “significantly improved”.
